According to article PMC12365235, “Molecular mechanisms of thiazide-like diuretics-mediated inhibition of the human Na-Cl cotransporter” (Nature Communications, 2025):

Key:
[1] = parameters: method as in PMID 354839; settings: chlorthalidone dose 2- to 4-fold over the currently recommended level; cited from earlier work
hNCC(C472F) = target: T1, hNCC(C472F) (Homo sapiens, UniProt P55017, C472F); experiment: 125I- uptake assay, hNCC(C472F) variant; type: cell-based
T1 construct: expressed in transfected cells
T1 sequence (P55017 1-1021 C472F): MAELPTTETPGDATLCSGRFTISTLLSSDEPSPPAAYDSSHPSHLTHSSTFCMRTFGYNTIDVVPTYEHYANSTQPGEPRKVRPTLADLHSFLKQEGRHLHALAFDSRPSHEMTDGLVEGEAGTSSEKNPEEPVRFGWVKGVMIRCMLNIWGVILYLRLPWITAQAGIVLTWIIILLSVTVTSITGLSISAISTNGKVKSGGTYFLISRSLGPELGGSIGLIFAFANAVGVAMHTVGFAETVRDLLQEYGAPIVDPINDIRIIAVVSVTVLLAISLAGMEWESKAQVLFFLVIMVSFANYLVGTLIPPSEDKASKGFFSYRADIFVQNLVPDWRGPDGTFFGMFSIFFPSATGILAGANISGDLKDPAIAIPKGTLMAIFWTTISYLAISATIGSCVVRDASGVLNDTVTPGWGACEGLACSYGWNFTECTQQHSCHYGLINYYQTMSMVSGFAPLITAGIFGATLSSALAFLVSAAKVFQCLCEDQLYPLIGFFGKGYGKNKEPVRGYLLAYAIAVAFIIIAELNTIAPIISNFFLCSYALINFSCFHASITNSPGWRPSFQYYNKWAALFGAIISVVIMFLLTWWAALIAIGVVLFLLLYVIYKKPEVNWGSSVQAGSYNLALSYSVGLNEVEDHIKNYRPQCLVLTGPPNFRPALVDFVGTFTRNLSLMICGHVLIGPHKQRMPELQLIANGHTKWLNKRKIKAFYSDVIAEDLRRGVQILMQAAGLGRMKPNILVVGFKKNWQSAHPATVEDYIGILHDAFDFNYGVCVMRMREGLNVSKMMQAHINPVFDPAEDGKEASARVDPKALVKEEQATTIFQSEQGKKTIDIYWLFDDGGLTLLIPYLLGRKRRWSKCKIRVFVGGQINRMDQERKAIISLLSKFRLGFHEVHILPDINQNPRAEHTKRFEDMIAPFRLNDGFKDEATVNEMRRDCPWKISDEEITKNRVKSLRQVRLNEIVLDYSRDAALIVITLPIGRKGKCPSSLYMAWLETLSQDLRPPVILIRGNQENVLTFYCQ
Procedure: (§1) HEK293S cell lines, cultured in 293 Freestyle medium (Life Technologies; plus 10% fetal bovine serum), stably expressing hNCC and its variants were generated following published protocols. Cells were transfected using Lipofectamine 3000 (Invitrogen) with a pSBbi-RP-based plasmid containing hNCC or its variants and the SB100X vector. Puromycin (2 μg/mL; Gemini Bio-Products) was used for selection of stable cell lines.
(§2) To prepare for the uptake experiment, cells were plated at 0.5 × 10^6 cells/well in 24-well plates one day in advance. To activate NCC, cells were treated with a chloride-free hypotonic solution composed of 67.5 mM sodium-, 2.5 mM potassium-, 0.25 mM magnesium-, and 0.25 mM calcium-gluconate, as well as 7.5 mM HEPES pH 7.4 (buffered using Tris) at 37 °C for 10 min[72]. After the activation step, the experiments were carried out at room temperature. Ten minutes before the start of ^125I^− uptake, 70 μM Bumetanide (Thermo Scientific Chemicals) and 100 μM 4,4′-diisothiocyanatostilbene-2,2′-disulfonic acid (DIDS; Sigma) were added to suppress background iodide uptake activity. Indicated thiazide diuretics were also added to the indicated concentrations 10 min before the start of ^125I^− uptake. The original buffer was switched to an uptake buffer composed of 135 mM Na-gluconate, 5 mM K-gluconate, 1 mM Mg-gluconate, 1 mM Ca-gluconate, 70 μM bumetanide, 100 μM DIDS, 1 mM NaI, 0.25 μCi/ml Na^125I (American Radiolabeled Chemicals, Inc.), and 15 mM HEPES pH 7.4 (buffered using Tris), in the presence or absence of thiazide diuretics to initiate ^125I^− uptake. The ^125I^− uptake process lasted 1 h and was stopped by two rapid washes using ice-cold 110 mM MgCl2. Cells lysed using 1% sodium dodecyl sulfate (SDS) were analyzed by scintillation counting.

hNCC(V229M) = experiment: 125I- uptake assay, hNCC(V229M) variant; type: cell-based, human; settings: V229M polymorphism
Procedure: as §1
as §2, with “The original buffer was switched to an uptake buffer composed of 135 mM Na-gluconate, 5 mM K-gluconate, 1 mM Mg-gluconate, 1 mM Ca-gluconate, 70 μM bumetanide, 100 μM DIDS, 1 mM NaI, 0.25 μCi/ml Na^125I (American Radiolabeled Chemicals, Inc.), and 15 mM HEPES pH 7.4 (buffered using Tris), in the presence or absence of thiazide diuretics to initiate ^125I^− uptake. The ^125I^− uptake process lasted 1 h and was stopped by two rapid washes using ice-cold 110 mM MgCl2.” left out, “counting. […]” for “counting.”

SMILES	serum glucose and uric acid [1]	inhibition at 100 µM (hNCC(C472F); 100 μM polythiazide, C472F, read-out: inhibition of transport activity)	decrease in potency relative to hNCC(WT) (hNCC(C472F); C472F substitution)	IC50 (hNCC(C472F); C472F substitution, estimated from ~50% inhibition at 100 μM)	fold reduction of sensitivity relative to hNCC(WT) (hNCC(V229M))
NS(=O)(=O)c1cc(C2(O)NC(=O)c3ccccc32)ccc1Cl (centres unmarked) [chlorthalidone]	elevated levels of serum glucose and uric acid				
CN1C(CSCC(F)(F)F)Nc2cc(Cl)c(S(N)(=O)=O)cc2S1(=O)=O (centres unmarked) [polythiazide]		~50%	approximately 200,000 fold	~100 µM	~ 5 fold
